{"source": "patent US7816074B2", "about": "“α4 β2 δGABA-A receptors as a strategy for PMS and alcoholism” (priority 2003, dated 2010)", "key": {"[1]": {"system": "α1β2δ receptors (oocytes injected with α1+β2+δ)", "assay_type": "cell-based, rat α1, rat β2, human δ, expressed in Xenopus laevis oocytes", "details": "oocytes injected with α1+β2+δ", "from_the_text": "(§1) Plasmids with inserts encoding GABAA receptor subunit sequence for rat α1 (62), rat β2 (83), rat α2 (62), rat α5 (62), mouse α4 (37), mouse β3 (82), rat β1 (83), rat γ2S (63), human δ (12), and human ε (11) were produced by subcloning each separately into an appropriate cloning vehicle such as PCDM8, pCDNA3.1 or pGHEMHE vectors (Invitrogen, Carlsbad Calif.) using a T7 promoter and standard subcloning techniques (59). Plasmids were linearized with an appropriate restriction enzyme at a site 3′ to the insert and cRNAs were synthesized using T3 or T7 polymerase (mMessage mMachine, Ambion, Tex.). The size of the cRNA was verified and RNA was quantified by ethidium bromide staining after electrophoresis on 1% agarose gels.\nThe preparation, injection, and maintenance of oocytes were carried out as described previously (78). Oocytes were injected with receptor subunit cRNAs (2 to 20 ng) in the following ratios: α1:β1:γ2S, α1:β2:γ2S and α1:β1:ε1, 1:1:1; α2:β1:γ2S, α5:β1:γ2S, α4:β1:γ2S, and α4:β2:γ2S, 10:1:1; α4:β1:δ, α4:β2:δ, α4:β3δ, 10:1:10; α1:β2:δ, 1:1:10 or 1:0.5:3; α1:β1:δ, 1:1:10 or 1:0.5:3; α2:β1:δ and α2:β2:δ, 1:0.5:3; α1:β1, α1:β2, α2:β1, α2:β2, β2:γ2S and α4δ, 1:1, α4:β1, α4:β2, α4:β3, 10:1, β2δ, 1:10.\nVoltage-clamp recording was carried out 1 to 3 days after injection of cRNAs. Electrodes were filled with 3 M KCl and had resistances of 0.4-4 MΩ. Oocytes were positioned in a small Perspex chamber and continuously superfused with a saline solution (100 mM NaCl, 2 mM KCl, 1.8 mM CaCl2, 10 mM HEPES, pH 7.5). Agonists and modulators were both applied in the same saline solution. Oocytes were voltage-clamped at −70 mV and macroscopic currents were recorded with a two-electrode voltage-clamp using a Warner Instruments OC-725 amplifier as described previously (79). Currents were recorded on a chart recorder or by using Axograph on a Macintosh computer.\nOther subunits (α1, α2, β1, β2) were tested for co-expression with the δ subunit. […]"}, "α1β2 receptors": {"biological_target": "T1, α1β2 receptors (Rattus norvegicus, UniProt P62813+P63138)", "T1 construct": "expressed in transfected cells; host or cells: oocytes injected with cRNA (Xenopus laevis is named only)", "T1 sequence (P62813 28-455)": "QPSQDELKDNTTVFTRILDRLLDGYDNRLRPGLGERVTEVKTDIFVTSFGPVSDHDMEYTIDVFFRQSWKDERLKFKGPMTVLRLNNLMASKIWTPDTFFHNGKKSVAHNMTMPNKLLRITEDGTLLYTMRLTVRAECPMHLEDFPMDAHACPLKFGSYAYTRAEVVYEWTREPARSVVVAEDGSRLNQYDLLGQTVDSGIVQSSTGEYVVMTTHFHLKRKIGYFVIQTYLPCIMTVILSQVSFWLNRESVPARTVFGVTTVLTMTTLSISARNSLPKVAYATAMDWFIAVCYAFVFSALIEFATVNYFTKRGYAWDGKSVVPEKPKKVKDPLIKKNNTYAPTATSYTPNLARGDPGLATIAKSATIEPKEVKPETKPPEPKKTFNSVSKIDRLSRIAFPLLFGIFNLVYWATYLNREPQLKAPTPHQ", "T1 sequence (P63138 25-474 limits assumed)": "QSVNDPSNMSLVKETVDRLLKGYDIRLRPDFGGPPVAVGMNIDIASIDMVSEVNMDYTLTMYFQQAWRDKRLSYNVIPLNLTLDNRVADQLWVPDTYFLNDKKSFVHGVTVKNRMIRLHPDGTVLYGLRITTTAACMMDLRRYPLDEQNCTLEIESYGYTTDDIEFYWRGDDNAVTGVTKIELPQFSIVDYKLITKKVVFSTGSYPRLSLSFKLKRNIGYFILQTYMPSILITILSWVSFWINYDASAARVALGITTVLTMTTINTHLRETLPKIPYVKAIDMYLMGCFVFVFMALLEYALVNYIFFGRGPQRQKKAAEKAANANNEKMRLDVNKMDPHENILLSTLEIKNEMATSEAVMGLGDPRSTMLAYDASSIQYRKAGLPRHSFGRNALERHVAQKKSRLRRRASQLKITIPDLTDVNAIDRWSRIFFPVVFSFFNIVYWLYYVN", "test": "Two-electrode voltage-clamp of recombinant GABAA receptors in oocytes", "assay_type": "cell-based, expressed in Xenopus laevis oocytes", "details": "oocytes injected with α1+β2", "from_the_text": "as §1\n(§2) The preparation, injection, and maintenance of oocytes were carried out as described previously (78). […]\n(§3) Voltage-clamp recording was carried out 1 to 3 days after injection of cRNAs. […] Oocytes were voltage-clamped at −70 mV and macroscopic currents were recorded with a two-electrode voltage-clamp using a Warner Instruments OC-725 amplifier as described previously (79). Currents were recorded on a chart recorder or by using Axograph on a Macintosh computer. […]"}, "[2]": {"biological_target": "α1β1 receptors / oocytes injected with α1+β1+δ (Rattus norvegicus, UniProt P15431+P62813)", "sequence (P62813 28-455)": "as the sequence (P62813 28-455) above", "sequence (P15431 26-474)": "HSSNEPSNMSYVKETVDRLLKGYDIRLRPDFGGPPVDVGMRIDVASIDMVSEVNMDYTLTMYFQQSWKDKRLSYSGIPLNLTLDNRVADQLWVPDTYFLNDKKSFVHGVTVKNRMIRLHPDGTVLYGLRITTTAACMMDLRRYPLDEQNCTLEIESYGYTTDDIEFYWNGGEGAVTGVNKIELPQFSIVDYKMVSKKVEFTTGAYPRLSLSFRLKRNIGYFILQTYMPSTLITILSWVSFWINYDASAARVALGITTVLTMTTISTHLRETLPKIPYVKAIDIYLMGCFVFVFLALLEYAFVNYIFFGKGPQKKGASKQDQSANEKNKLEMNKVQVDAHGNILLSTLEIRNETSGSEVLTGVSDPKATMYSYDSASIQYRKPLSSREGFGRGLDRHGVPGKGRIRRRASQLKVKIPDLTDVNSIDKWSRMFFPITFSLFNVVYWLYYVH", "details": "1 mM alcohol", "from_the_text": "as §1, §2, §3"}, "GABAR α4 subunit": {"system": "GABAR α4 subunit", "test": "Western blot of α4 subunit in hippocampus after steroid and ethanol administration", "assay_type": "in vivo, rat", "protocol": "Animals were administered steroids using one of two protocols: (i) For the 48 hour steroid administration protocol, animals were injected with 10 mg/kg 3α, 5β THP in oil, i.p., on a daily basis for three days and sacrificed 1-2 hour following the final injection. Controls were injected with oil vehicle. […] At this time, the capsule was removed and the animals were injected with 17 β estradiol (2 μgs/animal) in order to reset their cycle. Animals were sacrificed 24 hours later. […] In all cases, implantation and removal of capsules were performed under halothane anesthesia. […] Therefore, this study employed the 5β isomer of the steroid.\nIn some groups of animals, either ethanol (0.5 g/kg in saline) or saline vehicle was administered i.p. (3×, every 40 minutes) for the final 2 hours of the respective steroid administration or withdrawal paradigm. The use of multiple injections of low doses of ethanol would approximate ethanol consumption in the human more closely than would a single injection. For the 48 hour steroid administration paradigm, animals received their first ethanol injection immediately after the steroid injection, and subsequent injections at 40 minute intervals. In all cases, animals were sacrificed 40 minutes after the final ethanol injection (2 hours after the first ethanol injection and final steroid injection). All animal protocols were carried out with the approval of the Institutional Animal Care and Use Committee.\nHippocampi removed from steroid or vehicle-treated animals were homogenized, and membranes prepared as previously described (65). Following electrophoresis on 8% SDS polyacrylamide gels, membranes were transferred to a nitrocellulose membrane (Bio-Rad, Hercules, Calif.). α4 subunit levels were detected by evaluating the band density at 67 kDa after probing with a polyclonal antibody (64). Membranes were incubated for 1-2 hours at room temperature with a 1:5000 dilution of horseradish peroxidase-conjugated donkey anti-rabbit IgG (Amersham, Arlington Heights, Ill.), and visualized with enhanced chemiluminescence with varying concentrations of protein in the linear range. Immunoreactive band densities were quantified using a CCD camera (UMAX Scanner) and one-Dscan software, which uses multiple Gaussian fits to achieve accurate band density profiles."}, "α4β2δ GABAA receptors": {"biological_target": "T2, α4β2δ GABAA receptors (UniProt O14764+P63138+Q9D6F4)", "T2 construct": "expressed in transfected cells", "T2 sequence (Q9D6F4 36-552)": "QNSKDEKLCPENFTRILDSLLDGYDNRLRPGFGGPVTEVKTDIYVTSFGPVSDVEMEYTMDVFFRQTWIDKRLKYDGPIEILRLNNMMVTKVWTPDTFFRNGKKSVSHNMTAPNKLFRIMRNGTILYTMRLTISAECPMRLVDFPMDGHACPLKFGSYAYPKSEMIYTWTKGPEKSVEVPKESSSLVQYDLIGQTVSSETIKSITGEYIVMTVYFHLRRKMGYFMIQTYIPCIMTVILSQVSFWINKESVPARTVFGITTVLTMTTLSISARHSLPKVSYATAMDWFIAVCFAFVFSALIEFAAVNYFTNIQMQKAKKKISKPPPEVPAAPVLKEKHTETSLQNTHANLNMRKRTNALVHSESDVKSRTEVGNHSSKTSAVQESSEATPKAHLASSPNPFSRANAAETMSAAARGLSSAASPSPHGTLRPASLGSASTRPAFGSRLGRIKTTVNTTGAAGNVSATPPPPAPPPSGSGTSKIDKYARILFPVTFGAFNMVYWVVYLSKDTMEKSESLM", "T2 sequence (P63138 25-474 limits assumed)": "as the sequence (P63138 25-474 limits assumed) above", "T2 sequence (O14764 17-452 limits assumed)": "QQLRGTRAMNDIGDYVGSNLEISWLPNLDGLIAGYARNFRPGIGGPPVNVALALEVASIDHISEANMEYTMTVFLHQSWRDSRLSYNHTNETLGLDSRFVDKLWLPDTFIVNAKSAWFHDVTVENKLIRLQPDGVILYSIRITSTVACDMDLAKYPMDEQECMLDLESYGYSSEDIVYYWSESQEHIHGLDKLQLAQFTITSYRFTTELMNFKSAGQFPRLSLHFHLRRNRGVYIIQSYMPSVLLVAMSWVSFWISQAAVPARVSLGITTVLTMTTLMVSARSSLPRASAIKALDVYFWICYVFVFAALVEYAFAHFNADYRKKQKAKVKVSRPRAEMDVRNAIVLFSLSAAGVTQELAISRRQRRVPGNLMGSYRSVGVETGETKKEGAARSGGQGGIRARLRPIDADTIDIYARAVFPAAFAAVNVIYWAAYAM", "details": "oocytes (ref. 67), cited from earlier work"}, "female Long Evans rats": {"system": "female Long Evans rats", "test": "Elevated plus maze", "details": "ethanol 0.5 g/kg", "description": "Adult, female Long Evans rats (200-250 grams at the time of testing) were used in the following example. Animals were housed in pairs under controlled conditions (14:10 light:dark cycle, 24° C.) with free access to food and water. Progesterone (P, Sigma, crystalline)-filled capsules of silicone tubing (Nalgene Co. 1/16″×⅛″ o.d., 10 mm/100 g body weight) were implanted subcutaneously in the lower back after induction of halothane anesthesia (3-6% in O2, 1 liter/minutes) in the experimental animals. […] Capsules were removed under halothane anesthesia after a 21-day P administration period, and animals tested 24 hours after the last injection (“P withdrawal”). Control animals were tested on the day of diestrus, also referred to as diestrus controls, a low hormone state, as determined by vaginal lavage. […] All animals were tested between 0730 and 1100 hour. Euthanasia was either by decapitation in the electrophysiology experiments or CO2 inhalation for the behavioral experiments following the indicated protocols.\nThis device consists of four 10×50 cm arms at 90° angles, with two arms enclosed by 40 cm walls, and two open arms, all elevated 50 cm above the floor. The open arms are also partially bordered by small rails extending to the proximal half of the arm, and the floor of the maze is marked with grid lines every 25 cm. […] Both number of entries and duration of time spent in the open and closed arms were tabulated, as were the total arm entries, a measure of general activity level. To be considered an open arm entry, the animal had to cross the line of the open platform with all four paws. An increase in open arm entries or time spent in the open arm versus the total time is considered to be a measure of decreased anxiety, (25)."}}, "note": "Like-named read-outs stand apart in the source and are kept apart here.", "data": [{"molecule": "CCO", "note": "[ethanol]", "values": [{"measurement": "responses to GABA in presence of alcohol, % of control", "setting": "[1]", "value": "88-95 % of control"}, {"measurement": "responses to GABA in presence of alcohol, % of control", "setting": "α1β2 receptors", "value": "88-95 % of control"}, {"measurement": "effect on GABA responses", "setting": "[2]", "value": "not altered"}, {"measurement": "α4 expression", "setting": "GABAR α4 subunit; 2 hour ethanol administration after progesterone withdrawal", "value": "unchanged from control levels"}, {"measurement": "α4 expression in hippocampus", "setting": "GABAR α4 subunit; ethanol 0.5 g/kg i.p. across final 2 hours of 48 h 3α,5β-THP administration", "value": "reversed the increase"}, {"measurement": "α4 levels", "setting": "GABAR α4 subunit; ethanol administered without steroid", "value": "no significant effect"}, {"measurement": "effect on α4β2δ GABAA receptor", "setting": "α4β2δ GABAA receptors; ethanol 1-3 mM", "value": "potentiated"}, {"measurement": "effect on α4β2δ GABAA receptor", "setting": "α4β2δ GABAA receptors; ethanol >10 mM", "value": "ineffective"}, {"measurement": "% open arm entries, P withdrawn greater than control animals after ethanol", "setting": "female Long Evans rats", "value": 50, "unit": "%"}, {"measurement": "time in the open arm, P withdrawn relative to control animals after ethanol", "setting": "female Long Evans rats", "value": 3, "unit": "fold"}, {"measurement": "increase of % of open arm entries compared to vehicle", "setting": "female Long Evans rats; P withdrawn animals", "value": 7, "unit": "fold"}, {"measurement": "increase of time in the open arm compared to vehicle", "setting": "female Long Evans rats; P withdrawn animals", "value": "more than 20 fold"}, {"measurement": "effect on open arm time and % open arm entries", "setting": "female Long Evans rats; control animals", "value": "no significant effect"}, {"measurement": "locomotor activity (total number of arm entries)", "setting": "female Long Evans rats; either group", "value": "not significantly altered"}]}]}
